The values that follow come from US20240299406A1, “NEURONAL NICOTINIC ACETYLCHOLINE RECEPTOR PARTIAL AGONISTS AS THERAPEUTICS FOR CHRONIC TINNITUS” (Board of Trustees of Southern Illinois University, priority 2019, published 2024).

“Also recorded” adds a separate entry of the source.

The test system of data set [1] is rats with behavioral evidence of tinnitus. Nature of the data set: operant conditioned-suppression behavioral test for tinnitus (suppression ratio, 20 kHz test series). In kind it is in vivo, Long Evans rats. To be noted: for evidence of tinnitus: SC injection. The text has this: Unilaterally sound-exposed animals were used to study the effects of sazetidine on tinnitus. Experiments used an established behavioral psychoacoustic test to determine whether sazetidine could ameliorate tinnitus in subjects (rats) with behavioral evidence of tinnitus. Three months following sound-exposure, animals with tinnitus show consistent difficulty identifying silence. Sounds of varying intensity/levels were presented to sound-exposed (tinnitus) and unexposed (non-tinnitus control) subjects. The animals' behavior, quantified as a suppression ratio, indicated their level of tinnitus. Greater suppression, i.e., a decrease in lever pressing, indicates the presence of tinnitus.
The present study examined the potential therapeutic effect of sazetidine and varenicline to ameliorate tinnitus in rats with behavioral evidence of tinnitus. For two decades, an operant-behavior model has been used to investigate tinnitus pathology. In this model, animals are taught to attend closely to their auditory sensations using a conditioned suppression procedure: Animals lever press for food pellets in the presence of low-level background sounds, randomly punctuated by sound-off (silence) periods. Sound-off (silence) lever pressing earns food pellets but leads to a mild foot shock at the conclusion of the sound off presentation. The animals are therefore conditioned to stop lever pressing when the external sound is off, i.e., conditioned suppression. In this paradigm, the animals are conditioned to attend to their sound environment, and when tones of different frequencies and levels/intensities are substituted for some of the sound-off periods, the attendant behavior can be used to derive psychometric functions indicative of tinnitus.
Sixteen, 96-day old Long Evans rats (Envigo, Indianapolis, IN, USA) were anesthetized with a 1.7 percent isoflurane/02 mixture, placed in a head holder. A Fostex speaker (FT17H, Akashima, Japan) was attached to a 2 cm length of flexible tubing positioned at the entrance of the right ear canal. Eight randomly selected rats were unilaterally exposed once to band-limited noise for 1 hr, with a peak level of 120 dB (SPL) centered at 16 kHz, falling to ambient levels at 8 kHz and 24 kHz. During sound-exposure, the contralateral canal was obstructed by a canal-fitted plastic plug/tube from the contralateral speaker. Auditory brainstem responses (ABRs), which measure hearing, were obtained before and after exposure for pure tones at 8, 10, 12, 16, 20, 24, and 32 kHz, presented in 10 dB decrements between 95 and 5 dB (SPL re […]). Eight unexposed animals were similarly tested. Tinnitus testing began 3 months following sound-exposure and hearing-level determination.
Sazetidine A dihydrochloride (batch 2A/187725) was obtained in solid form, from Tocris Bioscience (Minneapolis, MN, USA). The drug was dissolved in sterile normal saline at a concentration of 2 mg/ml, or less, and administered as a subcutaneous injection (SC) 1 hour prior to behavioral testing.
Varenicline, varenicline tartrate, was purchased from Santa Cruz Biotechnology, Inc. (Dallas, Texas, USA). The drug was dissolved in sterile normal saline at a concentration of 1 mg/ml, or less, and administered as a SC injection 1 hour prior to behavioral testing.
(§1) Sterile normal saline was considered a pharmaceutically acceptable carrier, but other pharmaceutically acceptable carriers may also be used as a substitute. All animals, unexposed controls and sound-exposed, were drug treated and tested in parallel. […] Dose levels of 0.1, 0.5, and 1 mg/kg were tested for therapeutic effect, over a minimum of 3 consecutive days for each dose level. Washout periods of 1 to 5 weeks (5 test sessions per week) intervened between drug-testing, as required to recover pre-drug baseline tinnitus performance.
Prior to the start of drug testing, each group was optimized to five rats per group. […]

For data set [2], the target named is T1, α3β4 nAChRs (Homo sapiens, UniProt P30926+P32297). To be noted: cited from earlier work.
The target in data set [3] is T2, α7 nAChRs (Homo sapiens, UniProt P36544). To be noted: cited from earlier work.
Data set [4] has as its target α4β2 nAChRs (Homo sapiens, UniProt P17787+P43681). To be noted: cited from earlier work; for affinity for β2-containing nAChRs: partial nAChR agonists.
A short description of data set [5]: non-specific drug effects (cage observation, session lever pressing). Type of data set: in vivo, rats. As to the method: FIG. 10 illustrates the data for a non-specific effect. The non-specific effects appeared 10 to 15 min after treatment but were not present 1 hr after treatment, i.e., at the beginning of the test period.
as §1
At 1 mg/kg. […] Within 10 min of drug treatment all animals assumed a prone resting position in their home cage, which lasted about 10 min. Afterward animals resumed normal cage activity, e.g., moving about, grooming, sniffing. […] This behavior was not observed in washout or saline (vehicle) sessions, nor was it observed in the remaining 15 animals. Mild sedation was indicated by a decrease in total bar pressing at 1.0 mg/kg (FIG. 10).

Data set [6] has as its target T1, α3β4 nAChRs. The following applies: at lower affinity; cited from earlier work.
Data set [7] deals with rats with behavioral evidence of tinnitus. Nature of the data set: operant conditioned-suppression behavioral test for tinnitus (suppression ratio, 20 kHz test series). Type of data set: in vivo, Long Evans rats. The following applies: 0.5 mg/kg; 12 animals with tinnitus compared to 8 unexposed controls.
Data set [8] addresses T2, α7 nAChRs. To be noted: cited from earlier work. The source holds these as a separate data set.

α4β2 nAChRs, sequence (P43681 29-627 limits assumed): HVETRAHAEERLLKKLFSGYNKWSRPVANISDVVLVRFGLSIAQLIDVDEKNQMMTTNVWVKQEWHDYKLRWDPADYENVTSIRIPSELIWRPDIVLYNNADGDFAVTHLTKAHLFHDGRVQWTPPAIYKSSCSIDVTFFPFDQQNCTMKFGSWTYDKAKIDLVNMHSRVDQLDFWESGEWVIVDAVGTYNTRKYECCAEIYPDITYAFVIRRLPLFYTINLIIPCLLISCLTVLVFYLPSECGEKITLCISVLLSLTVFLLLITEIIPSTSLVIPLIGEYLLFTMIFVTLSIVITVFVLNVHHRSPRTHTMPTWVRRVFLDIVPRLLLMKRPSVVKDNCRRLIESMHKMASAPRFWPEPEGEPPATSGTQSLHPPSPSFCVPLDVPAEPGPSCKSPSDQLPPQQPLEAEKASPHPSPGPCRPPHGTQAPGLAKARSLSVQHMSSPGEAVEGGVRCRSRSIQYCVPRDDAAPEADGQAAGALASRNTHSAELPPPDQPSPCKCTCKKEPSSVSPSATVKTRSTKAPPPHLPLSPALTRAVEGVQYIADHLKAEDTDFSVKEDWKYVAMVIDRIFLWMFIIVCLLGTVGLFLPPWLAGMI
α4β2 nAChRs, sequence (P17787 26-502): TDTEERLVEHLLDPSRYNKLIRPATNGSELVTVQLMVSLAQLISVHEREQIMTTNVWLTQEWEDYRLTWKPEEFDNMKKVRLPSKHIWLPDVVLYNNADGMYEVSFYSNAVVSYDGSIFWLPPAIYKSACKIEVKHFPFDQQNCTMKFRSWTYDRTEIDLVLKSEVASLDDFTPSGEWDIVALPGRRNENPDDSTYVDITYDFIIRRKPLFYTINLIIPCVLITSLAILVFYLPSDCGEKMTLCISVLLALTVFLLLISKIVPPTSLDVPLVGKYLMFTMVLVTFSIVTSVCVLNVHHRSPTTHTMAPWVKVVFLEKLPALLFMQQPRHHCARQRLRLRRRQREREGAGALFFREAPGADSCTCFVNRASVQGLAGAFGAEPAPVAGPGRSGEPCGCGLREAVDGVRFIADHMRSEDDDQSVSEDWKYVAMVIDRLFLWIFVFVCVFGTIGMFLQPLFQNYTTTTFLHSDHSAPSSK
T1 sequence (P32297 32-505): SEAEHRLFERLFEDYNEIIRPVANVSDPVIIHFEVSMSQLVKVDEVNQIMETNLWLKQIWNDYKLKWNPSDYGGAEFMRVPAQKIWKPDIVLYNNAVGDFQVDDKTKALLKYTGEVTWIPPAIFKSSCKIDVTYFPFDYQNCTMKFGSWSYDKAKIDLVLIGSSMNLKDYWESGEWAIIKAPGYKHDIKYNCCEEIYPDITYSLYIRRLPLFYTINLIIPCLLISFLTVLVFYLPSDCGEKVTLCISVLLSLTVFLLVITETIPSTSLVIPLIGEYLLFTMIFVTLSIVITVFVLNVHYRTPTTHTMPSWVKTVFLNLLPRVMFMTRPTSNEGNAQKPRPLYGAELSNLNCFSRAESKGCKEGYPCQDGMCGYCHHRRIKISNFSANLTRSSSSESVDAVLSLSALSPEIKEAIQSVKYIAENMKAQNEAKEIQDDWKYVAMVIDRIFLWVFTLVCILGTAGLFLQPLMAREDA
T1 sequence (P30926 22-498): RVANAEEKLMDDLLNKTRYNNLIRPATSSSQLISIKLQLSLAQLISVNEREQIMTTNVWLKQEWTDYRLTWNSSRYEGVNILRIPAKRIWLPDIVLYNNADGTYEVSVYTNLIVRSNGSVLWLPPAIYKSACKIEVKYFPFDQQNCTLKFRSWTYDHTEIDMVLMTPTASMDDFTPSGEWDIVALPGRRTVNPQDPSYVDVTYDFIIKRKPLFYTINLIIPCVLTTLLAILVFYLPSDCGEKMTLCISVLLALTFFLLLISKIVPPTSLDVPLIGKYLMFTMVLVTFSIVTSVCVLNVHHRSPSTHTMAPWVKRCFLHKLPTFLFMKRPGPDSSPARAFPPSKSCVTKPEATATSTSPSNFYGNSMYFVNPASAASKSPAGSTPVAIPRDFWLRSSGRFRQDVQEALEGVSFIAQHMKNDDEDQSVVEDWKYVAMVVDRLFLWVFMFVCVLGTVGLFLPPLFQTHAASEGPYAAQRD
T2 sequence (P36544 23-502): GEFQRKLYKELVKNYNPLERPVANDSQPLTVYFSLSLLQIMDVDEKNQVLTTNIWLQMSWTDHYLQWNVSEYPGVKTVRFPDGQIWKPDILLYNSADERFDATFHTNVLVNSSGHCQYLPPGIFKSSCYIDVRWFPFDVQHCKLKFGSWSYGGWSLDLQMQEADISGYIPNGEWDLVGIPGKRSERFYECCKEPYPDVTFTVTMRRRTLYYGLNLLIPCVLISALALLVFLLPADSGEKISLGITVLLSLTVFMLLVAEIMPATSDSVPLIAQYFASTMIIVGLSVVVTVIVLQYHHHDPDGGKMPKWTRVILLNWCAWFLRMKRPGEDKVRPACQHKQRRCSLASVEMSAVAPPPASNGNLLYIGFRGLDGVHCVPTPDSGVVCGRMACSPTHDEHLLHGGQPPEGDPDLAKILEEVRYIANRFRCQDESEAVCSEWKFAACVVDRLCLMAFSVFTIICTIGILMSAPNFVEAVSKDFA

On to `OCCCCC#Cc1cncc(OC[C@@H]2CCN2)c1` [sazetidine], for which the “therapeutic effect on tinnitus” value was “potentially weak therapeutic effect” in data set [1] (0.1 mg/kg SC, FIG. 9) and “No therapeutic effect was observed” in data set [1] (1 mg/kg SC, third test (2nd replication), one week after 1st replication, FIG. 6). The “tinnitus dose-response (tinnitus suppression ratio)” value in data set [1] (0.1 mg/kg to 1.0 mg/kg SC, FIG. 11) is given as “Therapeutic effect increased with dose; also recorded: effectiveness increases as the dose is increased”. Moreover, the “suppression curve of tinnitus animals versus unexposed control animals” value in data set [1] (0.5 mg/kg SC, FIG. 8) was “no longer significantly different”; in data set [1] (1 mg/kg SC, first test, FIG. 2), “no longer significantly different”; in data set [1] (1 mg/kg SC, second test (1st replication), FIG. 5), “again no longer significantly different”; in data set [1] (five weeks following initial treatment, saline SC before test, FIG. 4), “again statistically significantly different”; in data set [1] (one week following initial treatment, washout, FIG. 3) it was “remain similar to control”. The evidence of tinnitus result in data set [1] (0.1 mg/kg) is “significantly reduced evidence of tinnitus”; in data set [1] (0.5 mg/kg), “effectively and significantly decreased evidence of tinnitus”; in data set [1] (1 mg/kg), “effectively and significantly decreased evidence of tinnitus”. Further, the “dose level at which statistical effectiveness begins” value in data set [1] (SC, FIG. 11) was “about 0.5 mg/kg”. In addition, the tinnitus-related symptoms/lever pressing result in data set [1] (treatment 1 hour before testing) was “decreased tinnitus-related symptoms/lever pressing”. The “selectivity for α4β2 nAChRs compared to α3β4 nAChRs” value in data set [2] is listed as > 20,000 fold. For the same molecule, in data set [3], the “selectivity for α4β2 nAChRs relative to α7 nAChRs” value is on record as 3,500 fold. Further, the “concentration that desensitizes α4β2 nAChRs” value in data set [4] was “low nanomolar concentrations”. The “affinity for β2-containing nAChRs” value in data set [4] is “very high affinity”. Further, in data set [5] (1.0 mg/kg, FIG. 10), the “sedation (decrease in total bar pressing)” value was “Mild sedation”. Also, in data set [5] (1.0 mg/kg, visual evidence), the “excess salivation, share of animals” value was “about a third of the animals”. Also, the “non-specific effects at the beginning of the test period” value in data set [5] (1 hr after treatment, FIG. 10) is on record as “not present”. The non-specific drug effects result in data set [5] (FIG. 10) is listed as “evident at 1 mg/kg”. Moreover, the “time of appearance of non-specific effects after treatment” value in data set [5] (FIG. 10) is recorded as 10 to 15 min. The “time to prone resting position in home cage, all animals” value in data set [5] (after drug treatment) is on record as not above 10 min. In addition, the “sedation (decrease in session lever pressing)” value in data set [5] (higher doses, FIG. 10) is given as “some general sedation”. In addition, the “duration of prone resting position” value in data set [5] (rat, in vivo) was “about 10 min”. In addition, the “drug-dependent agitation, animals affected” value in data set [5] (sound-exposed animal without evidence of tinnitus) is “One animal (out of 16)”.
Turning to `c1cnc2cc3c(cc2n1)C1CNCC3C1` [varenicline, 7,8,9,10-tetrahydro-6,10-methano-6H-pyrazino[2,3-h][3]-benzazepine], in data set [6], the “type of action at α3β4 nAChRs” value was “partial agonist actions”. The “suppression curve of tinnitus animals versus unexposed control animals” value in data set [1] (0.5 mg/kg SC, FIG. 13) was “no longer significantly different”. Besides, the “linearity of tinnitus reduction across doses” value in data set [1] (doses between 0.1 and 1.0 mg/kg) was “not-linear”. Moreover, the “selectivity for α4β2 nAChRs compared to α3β4 nAChRs” value in data set [2] is recorded as 4,000-5,000 fold. The “selectivity for α4β2 nAChRs relative to α7 nAChRs” value in data set [3] is recorded as 4,000-5,000 fold. In data set [4], the “concentration that desensitizes α4β2 nAChRs” value is given as “low nanomolar concentrations” and the “affinity for β2-containing nAChRs” value is listed as “very high affinity”. In data set [7], the “reduction of evidence of tinnitus” value was found to be 47%. The “type of action at α7 nAChRs” value in data set [8] is recorded as “full agonist activity”.
